According to patent US20110201628A1, “HETEROCYCLIC JAK KINASE INHIBITORS” (priority 2008, published 2011):

Legend:
[1] = biological target: T1, C-terminal His6-tagged human JAK2 kinase (Homo sapiens, UniProt O60674); test: JAK2 Amplified Luminescent Proximity Homogeneous Assay (ALPHA) (Method 3); type: biochemical; settings: biotinylated Tyk substrate, 20 minutes preincubation, 90 minutes at 25° C.
T1 construct: His6 (C); purchased Upstate Biotechnology, MA 14-640; host or cells: baculovirus in Sf21 cells
Protocol: Activity of purified C-terminal His6-tagged human JAK2 kinase was determined in-vitro using an Amplified Luminescent Proximity Homogeneous Assay (ALPHA) (Perkin Elmer, MA), which measures phosphorylation of a biotinylated Tyk ([…]) substrate (Cell Signaling Technology, MA, Cat #2200B). Commercially available JAK2 (amino acids 808-end, Genbank Accession number NM 004972, Upstate Biotechnology, MA, Catalog 14-640) was expressed by baculovirus in Sf21 cells and affinity purified by Ni^+2/NTA agarose.
The phosphorylation of Tyk substrate in the presence and absence of the compound of interest was determined. Briefly, 5 μl of Enzyme/Substrate/adenosine triphosphate (ATP) mix consisting of 1.44 nM JAK2, 192 nM Tyk, and 12 mM ATP in 1.2× buffer was preincubated with 2 μl of compound for 20 minutes at 25° C. […] Phosphorylated substrate was detected by an EnVision plate reader (Perkin Elmer, MA) 680 nm excitation, 520-620 nm emission. Data was graphed and IC50s calculated using Excel Fit (Microsoft).

[2] = biological target: T2, N-terminal GST-tagged, recombinant, human JAK2 (amino acids 831-1132) (Homo sapiens, UniProt O60674); test: JAK2 mobility shift assay on Caliper LC3000 (Method 2); type: biochemical; settings: 0.3 nM JAK2 enzyme, 5 mM ATP, 1.5 μM SRCtide, 90 minutes room temperature
T2 construct: human JAK2 (amino acids 831-1132, PLAZA database pAZB0359); GST (N); host or cells: insect cells
Protocol: Janus kinase 2 (JAK2) activity was also determined by measuring the kinase's ability to phosphorylate a tyrosine residue within a peptide substrate using a mobility shift assay on a Caliper LC3000 reader (Caliper, Hopkinton, Mass.), which measures fluorescence of the phosphorylated and unphosphorylated substrate and calculates a ratiometric value to determine percent turnover.
To measure JAK2 kinase activity, an in-house purified enzyme was used. […] After incubation of the kinase with a FAM labeled SRCtide substrate, adenosine triphosphate (ATP), and MgCl2 for 90 minutes at room temperature, the kinase reaction was stopped by the addition of 36 mM ethylenediaminetetraacetic acid (EDTA). The reaction was performed in 384 well microtitre plates and the reaction products were detected using the Caliper LC3000 Reader.

T2 sequence (O60674 831-1132): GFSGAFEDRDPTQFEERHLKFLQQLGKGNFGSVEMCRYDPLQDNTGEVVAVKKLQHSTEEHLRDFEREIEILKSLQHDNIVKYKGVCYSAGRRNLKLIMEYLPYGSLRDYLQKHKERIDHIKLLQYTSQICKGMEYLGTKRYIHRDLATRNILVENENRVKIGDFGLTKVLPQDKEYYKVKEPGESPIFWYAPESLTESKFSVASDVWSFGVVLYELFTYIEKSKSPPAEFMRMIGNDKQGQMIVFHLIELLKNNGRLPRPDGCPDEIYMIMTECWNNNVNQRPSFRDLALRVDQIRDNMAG
T1 sequence (O60674 808-1132 limits assumed): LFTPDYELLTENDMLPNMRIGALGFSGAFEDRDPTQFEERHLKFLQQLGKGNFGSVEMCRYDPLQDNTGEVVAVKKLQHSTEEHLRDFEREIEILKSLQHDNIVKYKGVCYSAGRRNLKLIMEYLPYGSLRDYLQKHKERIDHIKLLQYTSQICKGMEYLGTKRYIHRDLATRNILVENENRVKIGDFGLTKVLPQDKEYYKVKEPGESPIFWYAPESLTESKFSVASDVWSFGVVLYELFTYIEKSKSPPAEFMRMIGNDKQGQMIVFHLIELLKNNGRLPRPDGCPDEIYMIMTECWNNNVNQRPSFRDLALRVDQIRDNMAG

SMILES	IC50 [1] [nM]	IC50 [2] [nM]
CCn1ncc2c(Nc3cn(C)cn3)nc(NC(C)c3ncc(F)cn3)nc21 (single isomer, unassigned) [Example 9(a), 1-Ethyl-N^6-[1-(5-fluoropyrimidin-2-yl)ethyl]-N^4-(1-methyl-1H-imidazol-4-yl)-1H-pyrazolo[3,4-d]pyrimidine-4,6-diamine]	13700	–
CC(Nc1nc(Nc2cn(C)cn2)c2cc[nH]c2n1)c1ncc(F)cc1F (single isomer, unassigned) [Example 25(a), N^2-[1-(3,5-Difluoropyridin-2-yl)ethyl]-N^4-(1-methyl-1H-imidazol-4-yl)-7H-pyrrolo[2,3-d]pyrimidine-2,4-diamine]	2900	–
COc1cnc(C(C)Nc2nc(Nc3cn(C)cn3)c3cc[nH]c3n2)nc1 (centres unmarked) [Example 27(b), N^2-[1-(5-Methoxypyrimidin-2-yl)ethyl]-N^4-(1-methyl-1H-imidazol-4-yl)-7H-pyrrole[2,3-d]pyrimidine-2,4-diamine]	–	520

More lines, now with the values ahead:

IC50 [1] [nM]	IC50 [2] [nM]	SMILES
–	35	C[C@H](Nc1nc(Nc2cn(C)cn2)c2ccc(C(F)(F)F)nc2n1)c1ncc(F)cn1 [Example 32, N^2-[(1S)-1-(5-Fluoropyrimidin-2-yl)ethyl]-N^4-(1-methyl-1H-imidazol-4-yl)-7-(trifluoromethyl)pyrido[2,3-d]pyrimidine-2,4-diamine]
–	47	C[C@H](Nc1nc(Nc2cn(C)cn2)c2ccc(O)nc2n1)c1ncc(F)cn1 [Example 34, 2-{[(1S)-1-(5-Fluoropyrimidin-2-yl)ethyl]amino}-4-[(1-methyl-1H-imidazol-4-yl)amino]pyrido[2,3-d]pyrimidin-7-ol]
